Measured values published in paper PMC6333442, “Conserved allosteric pathways for activation of TRPV3 revealed through engineering vanilloid-sensitivity” (eLife, 2019).
Changes are numbered by the printed parent chain.

Legend:
[1] = target: T1, mouse TRPV3-4M (F522S/L557M/A560T/Q580E) (Mus musculus, UniProt Q8K424, A560T/F522S/L557M/Q580E); assay: Two-electrode voltage clamp, TRPV3-4M in oocytes; type: cell-based; settings: RTx 100 nM, 2-APB 3 mM, room temperature, ±60 mV
T1 construct: expressed in transfected cells; host or cells: Xenopus laevis oocytes
T1 sequence (Q8K424 1-791 F522S/L557M/A560T/Q580E): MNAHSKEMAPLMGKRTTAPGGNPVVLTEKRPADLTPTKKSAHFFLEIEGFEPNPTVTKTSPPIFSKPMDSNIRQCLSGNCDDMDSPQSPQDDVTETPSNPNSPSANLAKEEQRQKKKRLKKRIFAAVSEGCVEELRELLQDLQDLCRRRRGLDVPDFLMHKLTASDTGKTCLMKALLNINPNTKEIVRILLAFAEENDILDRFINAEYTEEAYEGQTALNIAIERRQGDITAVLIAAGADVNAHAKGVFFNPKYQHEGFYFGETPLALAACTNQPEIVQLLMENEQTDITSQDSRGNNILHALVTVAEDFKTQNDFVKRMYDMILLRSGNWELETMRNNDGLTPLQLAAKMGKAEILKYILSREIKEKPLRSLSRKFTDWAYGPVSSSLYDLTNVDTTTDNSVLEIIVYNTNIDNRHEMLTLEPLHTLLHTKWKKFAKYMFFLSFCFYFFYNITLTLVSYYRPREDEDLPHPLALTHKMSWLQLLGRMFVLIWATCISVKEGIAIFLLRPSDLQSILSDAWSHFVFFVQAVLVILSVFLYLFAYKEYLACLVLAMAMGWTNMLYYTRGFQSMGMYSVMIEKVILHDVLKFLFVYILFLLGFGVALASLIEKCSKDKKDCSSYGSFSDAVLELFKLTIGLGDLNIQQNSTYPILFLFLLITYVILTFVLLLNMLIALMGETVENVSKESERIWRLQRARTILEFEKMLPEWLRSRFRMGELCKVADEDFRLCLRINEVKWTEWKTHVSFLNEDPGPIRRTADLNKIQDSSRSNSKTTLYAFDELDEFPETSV
Procedure: All channel constructs were expressed in Xenopus laevis oocytes and studied using the two-electrode voltage clamp technique (TEVC) following 1–4 days of incubation after cRNA injection. The animal care and experimental procedures were performed in accordance with the Guide for the Care and Use of Laboratory Animals and were approved by the Animal Care and Use Committee of the National Institute of Neurological Disorders and Stroke (Animal protocol number 1253–17). Oocytes were removed surgically and incubated with agitation for 1 hr in a solution containing (in mM) 82.5 NaCl, 2.5 KCl, 1 MgCl2, 5 HEPES, pH 7.6 (with NaOH), and collagenase (2 mg/ml; Worthington Biochemical, Lakewood, NJ). Defolliculated oocytes were injected with cRNA for each of the constructs and incubated at 17°C in a solution containing (in mM) 96 NaCl, 2 KCl, 1 MgCl2, 1.8 CaCl2, 5 HEPES, pH 7.6 (with NaOH), and gentamicin (50 μg/ml, GIBCO-BRL, Gaithersburg, MD). Oocyte membrane voltage was controlled using an OC-725C oocyte clamp (Warner Instruments, Hamden, CT). Data were filtered at 1–3 kHz and digitized at 20 kHz using pClamp software (Molecular Devices, Sunnyvale, CA) and a Digidata 1440A digitizer (Axon Instruments). Microelectrode resistances were 0.1–1 MΩ when filled with 3 M KCl. For recording TRP channel currents, the external recording solution contained (in mM) 100 KCl, 10 HEPES, pH 7.6 (with KOH). […]

[2] = target: T2, mouse TRPV3-6M (Mus musculus, UniProt Q8K424, A560T/F522S/H523E/L557M/Q580E/W521Y); type: cell-based; settings: for channel activation (current response): RTx 100 nM, 2-APB 3 mM, room temperature, ±60 mV
T2 construct: expressed in transfected cells; host or cells: Xenopus laevis oocytes
T2 sequence (Q8K424 1-791 W521Y/F522S/H523E/L557M/A560T/Q580E): T1 sequence (Q8K424 1-791 F522S/L557M/A560T/Q580E) with W521Y, H523E
Procedure: All channel constructs were expressed in Xenopus laevis oocytes and studied using the two-electrode voltage clamp technique (TEVC) following 1–4 days of incubation after cRNA injection. The animal care and experimental procedures were performed in accordance with the Guide for the Care and Use of Laboratory Animals and were approved by the Animal Care and Use Committee of the National Institute of Neurological Disorders and Stroke (Animal protocol number 1253–17). Oocytes were removed surgically and incubated with agitation for 1 hr in a solution containing (in mM) 82.5 NaCl, 2.5 KCl, 1 MgCl2, 5 HEPES, pH 7.6 (with NaOH), and collagenase (2 mg/ml; Worthington Biochemical, Lakewood, NJ). Defolliculated oocytes were injected with cRNA for each of the constructs and incubated at 17°C in a solution containing (in mM) 96 NaCl, 2 KCl, 1 MgCl2, 1.8 CaCl2, 5 HEPES, pH 7.6 (with NaOH), and gentamicin (50 μg/ml, GIBCO-BRL, Gaithersburg, MD). Oocyte membrane voltage was controlled using an OC-725C oocyte clamp (Warner Instruments, Hamden, CT). Data were filtered at 1–3 kHz and digitized at 20 kHz using pClamp software (Molecular Devices, Sunnyvale, CA) and a Digidata 1440A digitizer (Axon Instruments). Microelectrode resistances were 0.1–1 MΩ when filled with 3 M KCl. For recording TRP channel currents, the external recording solution contained (in mM) 100 KCl, 10 HEPES, pH 7.6 (with KOH). Experiments were performed at room temperature (~22°C), except as indicated otherwise. […] Current time courses were obtained by stepping membrane voltage every 2 s from a holding potential of 0 mV to either −60 or +60 mV for 100 ms, and plotting the mean steady-state current at the end of each voltage step as a function of total recording time. I-V relations were obtained similarly, but voltage was stepped every 2 s to a different value, in 10 mV increments and starting at −60 mV.
For temperature-activation experiments, calcium-activated chloride currents were minimized by using calcium-free solution containing 30 µM Caccinh-A01 and recording at negative membrane voltages. Heat stimuli were achieved by passing the external recording solution through glass capillary spirals immersed in a water bath maintained at about 70°C, and recordings were performed during constant perfusion with temperature measured using a thermistor (TA-29, Warner Instruments) located close to the cell. The thermistor was connected to the digitizer via a temperature controller (TC-324B, Warner Instruments) ([Zhang et al., 2018]). Oocytes injected with the various constructs were only studied if un-injected oocytes from the same batch contained a low density of endogenous temperature-sensitive currents at negative membrane voltages. For delivering cold stimuli, the external solution was passed through glass capillary spirals that were immersed in an ice bath. The mean I vs T relations were calculated by automatically binning each of the recordings in temperature intervals of 2°C, and averaging a single data point within each interval per cell. All data analysis was carried out using Igor Pro 6.3 (Wavemetrics, Portland, OR). Q10 values were obtained from Q10 = 10^10 x m, where m is the slope of linear fits to normalized log(current) vs temperature relations (not shown) over temperature intervals ~ 20–34°C or 38 – 45°C ([Zhang et al., 2018]).

Row | SMILES | channel activation (current response) [1] | channel activation by RTx after 2-APB pre-stimulation ([2]; RTx 100 nM after short stimulation with saturating 2-APB (3 mM)) | channel activation by RTx together with heating ([2]; RTx 100 nM with short heating pulse, temperatures slightly above room temperature) | channel activation (current response) [2]
1 | C=C(C)[C@]12C[C@@H](C)[C@@]34O[C@](Cc5ccccc5)(O[C@@H]1[C@@H]3C=C(COC(=O)Cc1ccc(O)c(OC)c1)C[C@]1(O)C(=O)C(C)=C[C@@H]41)O2 [RTx, resiniferatoxin] | not by 100 nM RTx | robust activation | prominent activation | insensitive
2 | NCCOB(c1ccccc1)c1ccccc1 [2-APB, 2-aminoethoxydiphenyl borate] | activated |  |  | robust responses
